IC50 data for 16 molecules are collected here from patent US8362008B2 (The University Of Edinburgh, priority 2007, dated 2013).

pIC50: −log10 of the molar value. Counter-ions that a name gives are not always drawn.

The assay addresses T1, human 11β-HSD1 enzyme (Homo sapiens, UniProt P28845).
T1 construct: stably transfected with a construct containing the full-length gene coding for the human 11β-HSD1 enzyme; expressed in transfected cells; host or cells: HEK293 (HEK293/11β-HSD1 cells)
The experiment in a line: Cellular in vitro 11β-HSD1 enzyme inhibition assay (SPA, HEK293/11β-HSD1 cells). In kind it is cell-based. The procedure:
Cellular In Vitro 11β-HSD1 Enzyme Inhibition Assay
Compounds were assessed by a Scintillation Proximity Assay (SPA) performed according to the following protocol:
HEK293 cells were stably transfected with a construct containing the full-length gene coding for the human 11β-HSD1 enzyme to create HEK293/11β-HSD1 cells. Cells were routinely cultured in DMEM containing 10% calf foetal serum, 1% glutamine, and 1% penicillin and streptomycin. Prior to assay, cells were plated at 2×10^4 cells/well in 96-well poly-D-Lys coated flat-bottomed microplates and incubated in 5% CO2, 95% O2 at 37° C. for 24 hours. The media in each well was removed immediately before assay.
Compounds to be tested were dissolved in DMSO at 10 mM and serially diluted into water containing 10% DMSO. Diluted compounds at a volume of 10 μL were added to wells of a 96-well V-bottomed microplate. […] This solution (100 μL/well) was transferred to the plate containing the cells. The plate was then incubated in 5% CO2, 95% O2 at 37° C. for 2 hours.
Following this incubation, 50 μL of the assay solution was transferred to each well of a 96-well scintillation microplate. A mixture consisting of anti-mouse YSi SPA beads, pre-mixed with anti-cortisol antibody in assay buffer (50 mM Tris.HCl, pH 7.0; 300 mM NaCl; 1 mM EDTA, 5% glycerol) was prepared and 50 μL added to each well of the scintillation microplate. An adhesive strip was applied to the microplate and the plate gently shaken for at least 2 hours at room temperature, and then spun briefly on a low speed centrifuge. The plate was read on a scintillation counter suitable for 96-well microplates. For the calculation of percentage inhibition, a series of wells were added to the plate that represented the assay maximum and the assay minimum: one set that contained substrate without cells (mimimum) and another set that contained substrate and cells without any compound (maximum).
The calculation of median inhibitory concentration (IC50) values for the compounds was performed using GraphPad Prism® software. Dose-response curves for each compound were plotted as fractional inhibition and data fitted to the four parameter logistic equation.

Where [1] appears, read: HEK293, less than or equal to 1000 nM (1 μM).
[2] abbreviates: HEK293, more than 1000 nM (1.0 μM) and less than or equal to 30 μM.

T1 sequence (P28845 whole entry): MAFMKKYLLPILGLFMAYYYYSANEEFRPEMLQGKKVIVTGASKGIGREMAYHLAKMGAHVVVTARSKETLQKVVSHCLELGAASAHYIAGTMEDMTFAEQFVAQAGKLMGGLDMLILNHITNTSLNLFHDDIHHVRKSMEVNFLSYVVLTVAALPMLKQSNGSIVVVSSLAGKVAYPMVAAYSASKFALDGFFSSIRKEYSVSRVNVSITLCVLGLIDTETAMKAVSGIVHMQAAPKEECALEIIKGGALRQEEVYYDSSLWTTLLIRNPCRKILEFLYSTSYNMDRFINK

`CC(=O)N1CCC(c2cc(C(=O)N3CCCC(C)(C)CC3)cs2)CC1` showed a pIC50 under setting [1] of at least 6.00.

For `CC(=O)N1CCC(c2cc(C(=O)N3CCCC4CCCCC43)cs2)CC1` (stereo not shown), the pIC50 under setting [1] is at least 6.00.

On to `O=C(c1csc(C2CCOCC2)c1)N1CCCC(F)(F)CC1`, for which, under setting [2], the pIC50 was 4.52 to 6.00.

As to `O=C(c1csc(C2CCOCC2)c1)N1CCC[C@@H]2CCCC[C@@H]21` (racemic) [CC-027, cis-(octahydro-quinolin-1-yl)-[5-(tetrahydro-pyran-4-yl)-thiophen-3-yl]-methanone], under setting [1], the pIC50 is at least 6.00.

With `O=C(c1csc(C2CCN(CCO)CC2)c1)N1CCC[C@@H]2CCCC[C@@H]21` (racemic) [CC-088, cis-1-(2-Hydroxy-ethyl)-4-[4-(octahydro-quinoline-1-carbonyl)-thiophen-2-yl]-piperidinium formate], the negative logarithm of the IC50 (pIC50) under setting [2] was 4.52 to 6.00.

Consider `O=C(c1csc(C2CCS(=O)(=O)CC2)c1)N1CCC[C@@H]2CCCC[C@@H]21` (racemic) [CC-138, cis-[5-(1,1-Dioxo-hexahydro-thiopyran-4-yl)-thiophen-3-yl]-(octahydro-quinolin-1-yl)methanone], for which, under setting [1], the pIC50 is at least 6.00.

As to `Cn1cc(CN2CCC(c3cc(C(=O)N4CCC[C@@H]5CCCC[C@@H]54)cs3)CC2)cn1` (racemic) [CC-152, cis-1-(1-Methyl-1H-pyrazol-4-ylmethyl)-4-[4-(octahydro-quinoline-1-carbonyl)-thiophen-2-yl]-piperidinium formate], under setting [2], the pIC50 is 4.52 to 6.00.

As for `O=C(NCCO)N1CCC(c2cc(C(=O)N3CCC[C@@H]4CCCC[C@@H]43)cs2)CC1` (racemic) [CC-157, cis-4-[4-(Octahydro-quinoline-1-carbonyl)-thiophen-2-yl]-piperidine-1-carboxylic acid(2-hydroxy-ethyl)-amide], under setting [1], the pIC50 was at least 6.00.

Molecule `O=C(c1csc(CC(F)(F)F)c1)N1CCC[C@@H]2CCCC[C@@H]21` (relative stereo) [AA-012, cis-(Octahydro-quinolin-1-yl)-[5-(2,2,2-trifluoro-ethyl)-thiophen-3-yl]-methanone] showed a pIC50 under setting [1] of at least 6.00.

Under setting [1], `N#CCc1cc(C(=O)N2CCC[C@@H]3CCCC[C@@H]32)cs1` (relative stereo) [AA-022, cis-[4-(Octahydro-quinoline-1-carbonyl)-thiophen-2-yl]-acetonitrile] showed a pIC50 of at least 6.00.

For `O=C(c1csc(C2CCNCC2)c1)N1CCC[C@@H]2CCCC[C@H]21` (relative stereo) [CC-034, trans-(Octahydro-quinolin-1-yl)-(5-piperidin-4-yl-thiophen-3-yl)-methanone], the pIC50 under setting [2] was 4.52 to 6.00.

Take `CC(=O)N1CCC(c2cc(C(=O)N3CCC[C@@H]4CCCC[C@@H]43)cs2)CC1` (relative stereo) [CC-035, cis-1-{4-[4-(Octahydro-quinoline-1-carbonyl)-thiophen-2-yl]-piperidin-1-yl}-ethanone]: the pIC50 under setting [1] is at least 6.00.

`CN1CCC(c2cc(C(=O)N3CCC[C@@H]4CCCC[C@@H]43)cs2)CC1` (relative stereo) [CC-038, cis-[5-(1-Methyl-piperidin-4-yl)-thiophen-3-yl]-(octahydro-quinolin-1-yl)-methanone] gave a pIC50 under setting [2] of 4.52 to 6.00.

`O=C(c1csc(C2=CCNCC2)c1)N1CCC[C@@H]2CCCC[C@@H]21` (relative stereo) [CC-046, cis-(octahydro-quinolin-1-yl)-[5-(1,2,3,6-tetrahydro-pyridin-4-yl)-thiophen-3-yl]-methanone] showed a pIC50 under setting [1] of at least 6.00.

With `O=C1CNCCN1c1cc(C(=O)N2CCC[C@@H]3CCCC[C@@H]32)cs1` (relative stereo) [CC-048, cis-1-[4-(Octahydro-quinoline-1-carbonyl)-thiophen-2-yl]-piperazin-2-one], the pIC50 under setting [2] is 4.52 to 6.00.

On to `O=C(CO)N1CCC(c2cc(C(=O)N3CCC[C@@H]4CCCC[C@@H]43)cs2)CC1` (relative stereo) [CC-053, cis-2-Hydroxy-1-{4-[4-(octahydro-quinoline-1-carbonyl)-thiophen-2-yl]-piperidin-1-yl}-ethanone], for which the pIC50 under setting [1] was at least 6.00.

The term pIC50 denotes the IC50 on a negative log10 scale, so that one unit is a factor of ten. The low end stands for a high IC50, the high end for a low IC50.
